# In patent EP4745196A1, “RESIN COMPOSITION” (LG Chem, Ltd., priority 2023, dated 2025):
# Assays:
# [1] = Measurement of pyrolysis temperature by differential scanning calorimeter; assay type: physicochemical; settings: endothermic substance; DSC, heating rate 10°C/min, temperature at maximum heat flow
# Method: The endothermic substance may have a pyrolysis temperature of 50°C or more. The pyrolysis temperature of the endothermic substance may be 300°C or less. The pyrolysis temperature may also be referred to as a temperature at which the endothermic substance undergoes an endothermic reaction (endothermic reaction temperature). The pyrolysis may mean that a material is chemically decomposed into a simpler material when heat has been applied thereto. The pyrolysis temperature may mean a temperature at which the pyrolysis occurs. The pyrolysis temperature of the endothermic substance may be 300°C or less, 280°C or less, 260°C or less, 240°C or less, 220°C or less, 200°C or less, 180°C or less, 160°C or less, 140°C or less, 120°C or less, or 100°C or less. The pyrolysis temperature of the endothermic substance may be specifically 50°C or more, 60°C or more, 70°C or more, 80°C or more, 90°C or more, 100°C or more, 120°C or more, 140°C or more, 160°C or more, or 180°C or more. When the endothermic substance is heated to the pyrolysis temperature, it may be decomposed into components constituting the endothermic substance through endotherm. When the pyrolysis temperature of the endothermic substance is within the range, there is no or little endothermic reaction at a normal operating temperature of the battery, and if the thermal runaway of the battery occurs, a cooling effect may be provided to the ignited battery cell through the endothermic reaction (e.g., pyrolysis) of the endothermic substance, and it may be advantageous in terms of delaying thermal transfer to adjacent battery cells. The pyrolysis temperature may be a value measured while increasing the temperature at a rate of 10°C/min using a differential scanning calorimeter (DSC Q2000, TA Corporation). From the differential scanning calorimeter, a graph may be obtained in which the x-axis is temperatures (°C) and the y-axis is heat flows (W/g), and in the graph, the temperature at the point where a heat flow (W/g) value, for example, an absolute value of a heat flow (W/g) is maximum may be set as the pyrolysis temperature.
# For endothermic substances used in Examples and Comparative Examples, pyrolysis temperatures were measured while increasing the temperature at a rate of 10°C/min using a differential scanning calorimeter (DSC Q2000, TA Corporation), and the results were described in Table 1. Specifically, 0.2 to 0.5 mg of a sample was placed in a crucible of the differential scanning calorimeter, and then a lid with a single hole penetrated with a punching needle was covered thereon. In a state where the crucible was placed in the center of a press, and a plunger was moved downward by turning a lever until no pressure was further applied downward, the crucible and lid were placed in the differential scanning calorimeter equipment, and a thermal analysis was performed. From the differential scanning calorimeter, a graph with temperature (°C) on the x-axis and heat flow (W/g) on the y-axis could be obtained, and the temperature at the point where the heat flow (W/g) value is maximum in the graph was defined as the pyrolysis temperature.
# [2] = endothermic substance; cited from earlier work
# [3] = Measurement of solubility in water; assay type: physicochemical; settings: endothermic substance; 20°C, added by 1g to 100 ml of water until precipitate
# Method: The endothermic substance may be a water-soluble substance.
# Specifically, while the samples were each added by 1g to 100 ml of water at 20°C, the weight of the sample before a precipitate occurred was measured. The presence of the precipitate was visually observed; if no precipitate has occurred, it is observed transparently.
SMILES,Pyrolysis temperature [1] [°C],Solubility in water [3] [g/100ml],Thermal conductivity [2]
"OB(O)O [Example H3BO3, H3BO3]",136,–,1 or less W/mK
[O]=[Al][O][Al]=[O] [Al2O3],2000,0,18 W/mK
[OH][Al]([OH])[OH] [Al(OH)3],297,–,26 W/mK
[Cl-].[Na+] [NaCl],801,–,3.13~3.87 W/mK
[Cl-].[K+] [KCl],770,≥ 30,6.53 W/mK
O.O.O.O.O.O.O.O.O.O.O.O.O.O.O.O.O.O.O=S(=O)([O-])[O-].O=S(=O)([O-])[O-].O=S(=O)([O-])[O-].[Al+3].[Al+3] [Al2(SO4)3·18H2O],102,–,0.24~0.31 W/mK
O.O.O.O.O.O.O.O.O.O.O.O.O=S(=O)([O-])[O-].O=S(=O)([O-])[O-].[Al+3].[K+] [KAl(SO4)2·12H2O],90,–,0.55 W/mK

# Continued, in another order:
Pyrolysis temperature [1] [°C],Solubility in water [3] [g/100ml],SMILES,Thermal conductivity [2]
330,–,[Mg+2].[OH-].[OH-] [Mg(OH)2],42~60 W/mK
2800,0,[O]=[Mg] [MgO],30 W/mK
714,–,[Cl-].[Cl-].[Mg+2] [MgCl2],0.5 W/mK
107,–,O.O.O.O.O.O.[Cl-].[Cl-].[Mg+2] [MgCl2·6H2O],0.15~0.96 W/mK
